In US5200409A, “Composition and use of substituted 1,3-dithiolo-and 1,4-dithiinoquinoxalines as an antimicrobial” (The Dow Chemical Company, priority 1992, dated 1993):
≈ marks a conversion by molar mass, not a printed value. Like-named read-outs stand apart in the source and are kept apart here.

How the values were obtained:
Aspergillus niger (An) = test: Minimum inhibitory concentration (MIC) in malt yeast agar; type: cell-based, Aspergillus niger ATCC 16404; conditions: malt yeast agar; 30° C.; 72 hours for fungi; read-out: Minimum Inhibitory Concentration, An
How it was run: (§1)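 Compound from a 1% acetone/water solution was mixed into molten malt yeast agar (48° C) at 500, 250, 100, 50, 25, 10, 5, 2.5, 1.0 and 0 ppm and poured into plates. Plates dried 24 hours, were inoculated with saline/surfactant spore suspensions diluted 1:9 via replicator, and incubated at 30° C for 72 hours.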

[1] = system: Saccharomyces cerevisiae (Sc); test: as above; type: cell-based, Saccharomyces cerevisiae ATCC 4105; conditions: malt yeast agar, 30° C., 48 hours for yeast, read-out: Minimum Inhibitory Concentration, Sc
How it was run: (§2)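 Compound dispersed in malt yeast agar at final 500, 250, 100, 50, 25, 10, 5, 2.5, 1.0 and 0 ppm (from 1% acetone/water solution); plates dried 24 h, then inoculated with saline/octylphenoxy polyethoxy ethanol suspensions of 7-day cultures diluted 1:9. Incubated at 30° C; read at 48 h for yeast, 72 h for fungi.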

Fusarium oxysporum (Fo) = test: as above; type: cell-based, Fusarium oxysporum ATCC 48112; conditions: malt yeast agar; 30° C.; 72 hours for fungi; read-out: Minimum Inhibitory Concentration, Fo
How it was run: as §1

[2] = system: Penicillium chrysogenum (Pc); test: as above; type: cell-based, Penicillium chrysogenum ATCC 9480; conditions: read-out: Minimum Inhibitory Concentration, Pc
How it was run: as §1

Trichoderma viride (Tv) = test: as above; type: cell-based, Trichoderma viride ATCC 8678; conditions: malt yeast agar; 30° C.; 72 hours for fungi; read-out: Minimum Inhibitory Concentration, Tv
How it was run: as §1

Candida albicans (Ca) = test: as above; type: cell-based, Candida albicans ATCC 10231; conditions: malt yeast agar; 30° C.; 48 hours for yeast; read-out: Minimum Inhibitory Concentration, Ca
How it was run: as §2

Escherichia coli (Ec) = test: Minimum inhibitory concentration (MIC) in nutrient agar; type: cell-based, Escherichia coli ATCC 11229; conditions: 48 h
How it was run: (§3)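 Agar-dilution MIC in nutrient agar at pH 6.8 and pH 8.2 (tricine buffer), containing test compound at 0–500 ppm. Plates were inoculated by replicator with 10^8 CFU/ml suspensions of 24-h cultures and incubated 48 h at 30° C. Growth or no growth defines the MIC.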

[3] = system: Enterobacter aerogenes (Ea); test: as above; type: cell-based, Enterobacter aerogenes ATCC 13048; conditions: Klebsiella aerogenes, 48 h
How it was run: as §3

[4] = system: Salmonella choleraesuis (Sc); test: as above; type: cell-based, Salmonella choleraesuis ATCC 10708; conditions: Salmonella enterica, 48 h
How it was run: as §3

Bacillus subtilis (Bs) = test: as above; type: cell-based, Bacillus subtilis ATCC 8473; conditions: 48 h
How it was run: as §3

[5] = system: Pseudomonas aeruginosa (Pa); test: as above; type: cell-based, Pseudomonas aeruginosa ATCC 10145; conditions: 48 hours
How it was run: as §3

Proteus vulgaris (Pv) = test: as above; type: cell-based, Proteus vulgaris ATCC 881; conditions: 48 h
How it was run: as §3

[6] = system: Pseudomonas aeruginosa (PRD-10); test: as above; type: cell-based, Pseudomonas aeruginosa ATCC 15442; conditions: 48 h
How it was run: as §3

[7] = system: Staphylococcus aureus (Sa); test: as above; type: cell-based, Staphylococcus aureus ATCC 6538
How it was run: as §3

[8] = system: Aureobasidium pullulan (Ap); test: Minimum inhibitory concentration (MIC) in malt yeast agar; type: cell-based, Aureobasidium pullulan ATCC 16622; conditions: read-out: Minimum Inhibitory Concentration, Ap
How it was run: as §1

[9] = system: Klebsiella pneumoniae (Kp); test: Minimum inhibitory concentration (MIC) in nutrient agar; type: cell-based, Klebsiella pneumoniae ATCC 8308
How it was run: as §3

[10] = malt yeast agar, 30° C., 72 hours for fungi
[11] = pH 6.8, read-out: Minimum Inhibitory Concentration, Ec
[12] = pH 8.2, read-out: Minimum Inhibitory Concentration, Ec
[13] = pH 6.8, read-out: Minimum Inhibitory Concentration, Ea
[14] = pH 8.2, read-out: Minimum Inhibitory Concentration, Ea
[15] = pH 6.8, read-out: Minimum Inhibitory Concentration, Sc
[16] = pH 8.2, read-out: Minimum Inhibitory Concentration, Sc
[17] = pH 6.8, read-out: Minimum Inhibitory Concentration, Bs
[18] = pH 8.2, read-out: Minimum Inhibitory Concentration, Bs
[19] = pH 6.8, read-out: Minimum Inhibitory Concentration, Pv
[20] = pH 8.2, read-out: Minimum Inhibitory Concentration, Pv
[21] = pH 6.8, read-out: Minimum Inhibitory Concentration, PRD
[22] = pH 8.2, read-out: Minimum Inhibitory Concentration, PRD
[23] = 48 h, pH 8.2, read-out: Minimum Inhibitory Concentration, Sa
[24] = pH 6.8, nutrient agar, 30° C., 48 hours, read-out: Minimum Inhibitory Concentration, Sa
[25] = malt yeast agar, 30° C., 48 hours for yeast and 72 hours for fungi
[26] = 48 h, pH 8.2, read-out: Minimum Inhibitory Concentration, Kp
[27] = pH 6.8, nutrient agar, 30° C., 48 hours, read-out: Minimum Inhibitory Concentration, Kp

Cc1ccc2nc3c(nc2c1)SC(=C(C#N)C#N)S3 [N, 6-methyl-1,3-dithiolo-(4,5-b)-quinoxaline-2-ylidene-propanedinitrile]
MIC (Aspergillus niger (An)): 500 µg/mL (≈ 1770 µM) | MIC [1]: > 500 µg/mL | MIC (Fusarium oxysporum (Fo)): > 500 µg/mL | MIC [2, 10]: 500 µg/mL (≈ 1770 µM) | MIC (Trichoderma viride (Tv)): > 500 µg/mL | MIC (Candida albicans (Ca)): > 500 µg/mL | MIC (Escherichia coli (Ec); [11]): > 500 µg/mL | MIC (Escherichia coli (Ec); [12]): > 500 µg/mL | MIC [3, 13]: > 500 µg/mL | MIC [3, 14]: > 500 µg/mL | MIC [4, 15]: 500 µg/mL (≈ 1770 µM) | MIC [4, 16]: > 500 µg/mL | MIC (Bacillus subtilis (Bs); [17]): > 500 µg/mL | MIC (Bacillus subtilis (Bs); [18]): > 500 µg/mL | MIC ([5]; pH 6.8, 30° C.): > 500 µg/mL | MIC ([5]; pH 8.2, 30° C.): > 500 µg/mL | MIC (Proteus vulgaris (Pv); [19]): > 500 µg/mL | MIC (Proteus vulgaris (Pv); [20]): > 500 µg/mL | MIC [6, 21]: > 500 µg/mL | MIC [6, 22]: > 500 µg/mL | MIC [7, 23]: > 500 µg/mL | MIC [7, 24]: > 500 µg/mL | MIC [8, 25]: 500 µg/mL (≈ 1770 µM) | MIC [9, 26]: > 500 µg/mL | MIC [9, 27]: > 500 µg/mL

N#CC(C#N)=C1Sc2nc3cc(Cl)c([N+](=O)[O-])cc3nc2S1 [Q, 6-chloro-7-nitro-1,3-dithiolo-(4,5-b)-quinoxaline-2-ylidene-propanedinitrile]
MIC (Aspergillus niger (An)): 500 µg/mL (≈ 1440 µM) | MIC [1]: 500 µg/mL (≈ 1440 µM) | MIC (Fusarium oxysporum (Fo)): > 500 µg/mL | MIC [2, 10]: 500 µg/mL (≈ 1440 µM) | MIC (Trichoderma viride (Tv)): > 500 µg/mL | MIC (Candida albicans (Ca)): 500 µg/mL (≈ 1440 µM) | MIC (Escherichia coli (Ec); [11]): > 500 µg/mL | MIC (Escherichia coli (Ec); [12]): > 500 µg/mL | MIC [3, 13]: > 500 µg/mL | MIC [3, 14]: > 500 µg/mL | MIC [4, 15]: > 500 µg/mL | MIC [4, 16]: > 500 µg/mL | MIC (Bacillus subtilis (Bs); [17]): > 500 µg/mL | MIC (Bacillus subtilis (Bs); [18]): > 500 µg/mL | MIC ([5]; pH 6.8, 30° C.): > 500 µg/mL | MIC ([5]; pH 8.2, 30° C.): > 500 µg/mL | MIC (Proteus vulgaris (Pv); [19]): > 500 µg/mL | MIC (Proteus vulgaris (Pv); [20]): > 500 µg/mL | MIC [6, 21]: > 500 µg/mL | MIC [6, 22]: > 500 µg/mL | MIC [7, 23]: > 500 µg/mL | MIC [7, 24]: > 500 µg/mL | MIC [8]: 50 µg/mL (≈ 144 µM) | MIC [9, 26]: > 500 µg/mL | MIC [9, 27]: > 500 µg/mL

Cc1cc2nc3c(nc2cc1[N+](=O)[O-])SC(=C(C#N)C#N)S3 [R, 6-nitro-7-methyl-1,3-dithiolo-(4,5-b)-quinoxaline-2-ylidene-propanedinitrile]
MIC (Aspergillus niger (An)): 100 µg/mL (≈ 305 µM) | MIC [1]: 500 µg/mL (≈ 1530 µM) | MIC (Fusarium oxysporum (Fo)): > 500 µg/mL | MIC ([2]; 72 h): 50 µg/mL (≈ 153 µM) | MIC (Trichoderma viride (Tv)): > 500 µg/mL | MIC (Candida albicans (Ca)): > 500 µg/mL | MIC (Escherichia coli (Ec); [11]): > 500 µg/mL | MIC (Escherichia coli (Ec); [12]): > 500 µg/mL | MIC [3, 13]: > 500 µg/mL | MIC [3, 14]: > 500 µg/mL | MIC [4, 15]: > 500 µg/mL | MIC [4, 16]: > 500 µg/mL | MIC (Bacillus subtilis (Bs); [17]): > 500 µg/mL | MIC (Bacillus subtilis (Bs); [18]): > 500 µg/mL | MIC ([5]; pH 6.8, 30° C.): > 500 µg/mL | MIC ([5]; pH 8.2, 30° C.): > 500 µg/mL | MIC (Proteus vulgaris (Pv); [19]): > 500 µg/mL | MIC (Proteus vulgaris (Pv); [20]): > 500 µg/mL | MIC [6, 21]: > 500 µg/mL | MIC [6, 22]: > 500 µg/mL | MIC [7, 23]: > 500 µg/mL | MIC [7, 24]: > 500 µg/mL | MIC [8, 25]: 500 µg/mL (≈ 1530 µM) | MIC [9, 26]: > 500 µg/mL | MIC [9, 27]: > 500 µg/mL

N#CC(C#N)=C1Sc2nc3ccc(C(=O)c4ccccc4)cc3nc2S1 [W, 6-benzoyl-1,3-dithiolo-(4,5-b)-quinoxaline-2-ylidene-propanedinitrile]
MIC (Aspergillus niger (An)): > 500 µg/mL | MIC [1]: > 500 µg/mL | MIC (Fusarium oxysporum (Fo)): > 500 µg/mL | MIC [2, 10]: > 500 µg/mL | MIC (Trichoderma viride (Tv)): > 500 µg/mL | MIC (Candida albicans (Ca)): > 500 µg/mL | MIC (Escherichia coli (Ec); [11]): > 500 µg/mL | MIC (Escherichia coli (Ec); [12]): > 500 µg/mL | MIC [3, 13]: > 500 µg/mL | MIC [3, 14]: > 500 µg/mL | MIC [4, 15]: > 500 µg/mL | MIC [4, 16]: > 500 µg/mL | MIC (Bacillus subtilis (Bs); [17]): > 500 µg/mL | MIC (Bacillus subtilis (Bs); [18]): > 500 µg/mL | MIC ([5]; pH 6.8, 30° C.): > 500 µg/mL | MIC ([5]; pH 8.2, 30° C.): > 500 µg/mL | MIC (Proteus vulgaris (Pv); [19]): > 500 µg/mL | MIC (Proteus vulgaris (Pv); [20]): > 500 µg/mL | MIC [6, 21]: > 500 µg/mL | MIC [6, 22]: > 500 µg/mL | MIC [7, 23]: > 500 µg/mL | MIC [7, 24]: > 500 µg/mL | MIC [8, 25]: 500 µg/mL (≈ 1340 µM) | MIC [9, 26]: > 500 µg/mL | MIC [9, 27]: > 500 µg/mL
